According to patent US4880636A, “Film coated tablet of ranitidine HCl” (priority 1988, dated 1989):
Entries after “also recorded” stand apart in the source; their conditions may differ. Where a name gives a salt, the structure may show the parent alone.

What was measured:
[1] = Cast film plasticizer comparison study (discoloration); format: physicochemical; parameters: key: 1 = least discoloration; 5 = greatest discoloration; details: ranitidine HCl spread on cast HPMC film with plasticizer (0.2 gm per gram HPMC); 60 degrees centigrade/78.9% RH, approximately two weeks; visual
Experimental: Cast film studies are performed using a typical film aqueous coating composition containing, on a per gram HPMC dry weight basis, plasticizer, 0.2 gm, and Opaspray (trademark of Colorcon, Inc., West Point, PA) colorant solids 0.5 gm. Cast films are prepared by adding 1.5 g of a 15% solids solution to a uniform plate, 42 mm in diameter, and drying at ambient temperature for at least 24 hours. Ranitidine HCl (1.5 gm), of particle size 50 to 200 microns, is then spread uniformly on the dried film coating and stored at 60 degrees centigrade/78.9% relative humidity (RH) for approximately two weeks. The RH is controlled by using a desiccator jar and a saturated KBr solution, which is maintained at 60° C. in a drying oven. […] After two weeks, the cast films are removed and visually examined for discoloration.

[2] = Compatibility of plasticizer with ranitidine HCl; details: plasticizer in polymeric film coating of ranitidine HCl tablets
[3] = Physicians' Desk Reference, 41st ed., page 993 (1987); cited from earlier work
[4] = cited from earlier work

SMILES	Cast Film Discoloration [1]	reactivity with ranitidine HCl or promotion of its degradation [2]	other results
CC(O)CO (centres unmarked) [Propylene Glycol, propylene glycol]	2	promote degradation; also recorded: tend to react with ranitidine HCl or promote degradation at the tablets' surfaces	–
CCOC(=O)CC(O)(CC(=O)OCC)C(=O)OCC [Triethyl Citrate, triethyl citrate]	3	–	–
CC(=O)OCC(COC(C)=O)OC(C)=O [Triacetin, 1,2,3-propanetriol triacetate]	1	essentially unreactive with ranitidine HCl	–
CCOC(=O)c1ccccc1C(=O)OCC [diethyl phthalate]	–	tend to react with ranitidine HCl or promote degradation at the tablets' surfaces	–
CNC(=C[N+](=O)[O-])NCCSCc1ccc(CN(C)C)o1 [ranitidine HCl]	–	–	degradation upon aging [3]: accelerated by heat, moisture and light; solubility in water ([4]; 25° C.): greater than 900 mg/mL; solubility in commonly used organic solvents [4]: very soluble
CCCCOC(=O)CCCCCCCCC(=O)OCCCC [dibutyl sebecate]	–	tend to react with ranitidine HCl or promote degradation at the tablets' surfaces	–
OCC(O)CO [Glycerol, glycerol]	5	–	–
